Measurements as given in patent US20240408216A1, “PROTEIN INHIBITOR OR DEGRADING AGENT, PHARMACEUTICAL COMPOSITION CONTAINING SAME AND PHARMACEUTICAL USE” (JING MEDICINE TECHNOLOGY (SHANGHAI) LTD., priority 2021, published 2024).
pIC50: −log10 of the molar value. Read-outs that look alike come from different tables or passages of the source.

Legend:
BaF3 (EGFR Del19/C797S) = target: T1, BaF3 (EGFR Del19/C797S) (Homo sapiens, UniProt P00533, C797S, cells depend on it, form not given); assay: Cell proliferation IC50 assay (Cell Titer GLO), BaF3 DC cells; assay type: cell-based, mouse; settings: Table 6, 72 h
T1 construct: BaF3 (EGFR Del19/C797S)|DC|RPMI1640 + 10% FBS
Experimental: (§1) IC50 of compounds in the present invention was determined by Cell Titer GLO reagent from Promega. The procedures are as follows:
(§2) Tumor cells were cultured in specified medium in an incubator at 37° C. and 5% CO2. The cells were passaged periodically. Cells at the logarithmic growth phase were collected for plating at a density of 2000-4000 cells/well. The next day, the compounds of the present invention were serially diluted and added to the cells, with DMSO being the negative control and the culture media without cells being the blank control. The plate was incubated in the incubator for 72 h. The cell viability assay was performed by adding the detection reagents to the cell culture media according to Cell Titer GLO reagent instructions and detecting luminescent signals on an EnVision microplate reader (PerkinElmer).
(§3) Inhibition of cell growth by the compounds of the present invention was plotted by Prism Graphpad software for statistically calculating the IC50 of the compound of the present invention.

[1] = tested on: BaF3 (EGFR L858R/T790M/C797S); assay: Cell proliferation IC50 assay (Cell Titer GLO), BaF3 LTC cells; assay type: cell-based; settings: Mus musculus, Ba/F3 EGFR, Table 6, 72 h
Experimental: as §1, §2, §3

BaF3 (EGFR WT) = assay: Cell proliferation IC50 assay (Cell Titer GLO), BaF3 WT cells; assay type: cell-based; settings: Mus musculus, Ba/F3 EGFR, Table 6, 10 ng/ml EGF, 72 h
Experimental: as §1, §2, §3

A431 = assay: Cell proliferation IC50 assay (Cell Titer GLO), A431 cells; assay type: cell-based; settings: Homo sapiens; for pIC50: A-431, Table 6, A431, 72 h, read-out: A431 IC50
Experimental: as §1, §2, §3

T1 sequence (P00533 with tags, fused parts or gaps DEL746-750/C797S, form open): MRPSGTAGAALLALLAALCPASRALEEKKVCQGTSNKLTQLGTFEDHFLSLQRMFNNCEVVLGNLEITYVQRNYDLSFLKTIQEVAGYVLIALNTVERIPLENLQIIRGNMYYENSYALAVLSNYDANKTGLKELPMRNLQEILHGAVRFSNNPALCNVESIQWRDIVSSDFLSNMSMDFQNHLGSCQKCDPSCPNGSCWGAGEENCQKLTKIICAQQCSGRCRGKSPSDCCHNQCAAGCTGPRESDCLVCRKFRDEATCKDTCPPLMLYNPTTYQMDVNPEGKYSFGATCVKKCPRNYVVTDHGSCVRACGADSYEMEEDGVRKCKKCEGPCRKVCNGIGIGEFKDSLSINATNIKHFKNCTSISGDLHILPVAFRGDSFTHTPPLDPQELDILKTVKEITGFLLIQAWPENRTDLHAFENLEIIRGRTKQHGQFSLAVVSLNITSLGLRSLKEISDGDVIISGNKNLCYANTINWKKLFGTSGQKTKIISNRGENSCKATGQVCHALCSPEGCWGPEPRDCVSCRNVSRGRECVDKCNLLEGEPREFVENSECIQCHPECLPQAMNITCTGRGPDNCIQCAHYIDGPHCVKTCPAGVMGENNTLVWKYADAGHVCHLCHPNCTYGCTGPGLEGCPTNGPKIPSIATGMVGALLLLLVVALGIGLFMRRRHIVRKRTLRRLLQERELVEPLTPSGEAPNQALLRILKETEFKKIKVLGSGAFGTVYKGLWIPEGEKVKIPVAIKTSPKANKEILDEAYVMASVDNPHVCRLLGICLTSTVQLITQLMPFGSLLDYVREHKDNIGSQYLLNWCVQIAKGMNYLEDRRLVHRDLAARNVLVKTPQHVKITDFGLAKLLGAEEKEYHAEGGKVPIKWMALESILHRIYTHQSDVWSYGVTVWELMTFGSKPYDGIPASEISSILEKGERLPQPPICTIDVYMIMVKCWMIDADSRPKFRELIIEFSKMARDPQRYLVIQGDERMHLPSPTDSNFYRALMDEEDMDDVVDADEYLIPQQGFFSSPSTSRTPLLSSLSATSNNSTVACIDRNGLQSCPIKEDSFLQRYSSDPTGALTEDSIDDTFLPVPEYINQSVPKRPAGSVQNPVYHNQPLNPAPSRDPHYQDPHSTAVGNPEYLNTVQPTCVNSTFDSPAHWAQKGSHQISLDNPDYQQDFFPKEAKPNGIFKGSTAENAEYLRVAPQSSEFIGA

Row | Compound | pIC50 (BaF3 (EGFR Del19/C797S)) | pIC50 [1] | pIC50 (BaF3 (EGFR WT)) | pIC50 (A431) | IC50 (A431; A-431, 72 h, read-out: A431 IC50 (nM)) [nM]
1 | CCc1cc(Nc2ncc(Cl)c(Nc3ccccc3N(C)S(C)(=O)=O)n2)c(OC)cc1N1CCC(N2CCN(CCC#Cc3cccc4c3CN(C3CCC(=O)NC3=O)C4=O)CC2)CC1 (stereo not shown) [Example E42] | 8.25 | 7.36 | 7.04 | 5.94 | –
2 | CCc1cc(Nc2ncc(Cl)c(Nc3ccccc3P(C)(C)=O)n2)c(OC)cc1N1CCC2(CCN(CCCC#Cc3c(F)ccc4c3CN(C3CCC(=O)NC3=O)C4=O)CC2)CC1 (stereo not shown) [Example E74] | 7.42 | 6.80 | < 5.40 | < 5.40 | –
3 | CCc1cc(Nc2ncc(-n3ccnn3)c(Nc3ccccc3P(C)(C)=O)n2)c(OC)cc1N1CCC(N2CCN(CCOc3ccc4c(c3)CN(C3CCC(=O)NC3=O)C4=O)CC2)CC1 (stereo not shown) [Example E220] | 8.40 | < 5.40 | < 5.40 | < 5.40 | –
4 | CCc1cc(Nc2ncc(-n3cc(C)cn3)c(Nc3ccccc3P(C)(C)=O)n2)c(OC)cc1N1CCC(N2CCN(CCOc3ccc4c(c3)CN(C3CCC(=O)NC3=O)C4=O)CC2)CC1 (stereo not shown) [Example E68] | 7.73 | < 5.40 | < 5.40 | < 5.40 | –
5 | CCc1cc(Nc2ncc(-c3cnn(C)c3)c(Nc3ccccc3P(C)(C)=O)n2)c(OC)cc1N1CCC(N2Cc3ccc(Oc4cccc5c4CN(C4CCC(=O)NC4=O)C5=O)cc3C2)CC1 (stereo not shown) [Example E172] | 8.62 | < 5.40 | 5.97 | < 5.40 | –
6 | CCc1cc(Nc2ncc(Cl)c(Nc3ccccc3P(C)(C)=O)n2)c(OC)cc1N1CCC(N2CCN(CCCCNc3cccc4c3CN(C3CCC(=O)NC3=O)C4=O)CC2)CC1 (stereo not shown) [Example E119] | 8.25 | 7.17 | < 5.40 | 5.85 | –
7 | CCc1cc(Nc2nc(Nc3ccccc3P(C)(C)=O)c3cn[nH]c3n2)c(OC)cc1N1CCC(N2CCN(CCCCOc3cccc4c3CN(C3CCC(=O)NC3=O)C4=O)CC2)CC1 (stereo not shown) [Example E161] | 8.70 | 6.87 | 5.93 | 5.89 | –
8 | CCc1cc(Nc2ncc(-c3cc[nH]n3)c(Nc3ccccc3P(C)(C)=O)n2)c(OC)cc1N1CCC(N2CCN(CCOc3cccc4c3CN(C3CCC(=O)NC3=O)C4=O)CC2)CC1 (stereo not shown) [Example E164] | 8.11 | < 5.40 | < 5.40 | < 5.40 | –
9 | CCc1cc(Nc2ncc(-c3nnc(C)o3)c(Nc3ccccc3P(C)(C)=O)n2)c(OC)cc1N1CCC(N2CCN(CCOc3cccc4c3CN(C3CCC(=O)NC3=O)C4=O)CC2)CC1 (stereo not shown) [Example E177] | 7.80 | < 5.40 | < 5.40 | < 5.40 | –
10 | CCc1cc(Nc2ncc(Cl)c(Nc3ccccc3P(C)(C)=O)n2)c(OC)cc1N1CCC(N2CCc3ccc(Oc4cccc5c4CN(C4CCC(=O)NC4=O)C5=O)cc3C2)CC1 (stereo not shown) [Example E76] | 7.52 | 6.83 | < 5.40 | < 5.40 | –
11 | CCc1cc(Nc2nc(Nc3ccccc3P(C)(C)=O)c3cn[nH]c3n2)c(OC)cc1N1CCC(N2CCN(CCOc3cc4c(cc3F)C(=O)N(C3CCC(=O)NC3=O)C4)CC2)CC1 (stereo not shown) [Example E208] | 7.79 | 6.27 | 6.00 | 5.87 | –
12 | CCc1cc(Nc2nc(Nc3ccccc3P(C)(C)=O)c3cc[nH]c3n2)c(C(F)(F)F)cc1N1CCC(N2CCN(CCCCOc3cccc4c3CN(C3CCC(=O)NC3=O)C4=O)CC2)CC1 (stereo not shown) [Example E154] | 6.35 | 5.46 | < 5.40 | < 5.40 | –
13 | CCc1cc(Nc2ncc(Cl)c(Nc3ccccc3P(C)(C)=O)n2)c(OC)cc1N1CCC(N2CCN([C@H]3C[C@@H](Oc4cccc5c4CN(C4CCC(=O)NC4=O)C5=O)C3)CC2)CC1 (stereo partly shown) [Example E159] | 8.85 | 7.66 | 6.19 | 5.73 | –
14 | CCc1cc(Nc2ncc(C(=O)N3CCCC3)c(Nc3ccccc3P(C)(C)=O)n2)c(OC)cc1N1CCC(N2CCN(CCOc3cccc4c3CN(C3CCC(=O)NC3=O)C4=O)CC2)CC1 (stereo not shown) [Example E148] | 8.03 | < 5.40 | < 5.40 | < 5.40 | –
15 | CCc1cc(Nc2ncc(Cl)c(Nc3ccccc3P(C)(C)=O)n2)c(OC)cc1N1CCC2(CCN(C(=O)CCCOc3cccc4c3CN(C3CCC(=O)NC3=O)C4=O)CC2)CC1 (stereo not shown) [Example E90] | 7.88 | 6.85 | 5.68 | ≤ 5.43 | –
16 | CCc1cc(Nc2ncc(Cl)c(Nc3ccccc3P(C)(C)=O)n2)c(OC)cc1N1CCC2(CC1)CC(N(C)CCCC#Cc1cccc3c1CN(C1CCC(=O)NC1=O)C3=O)C2 (stereo not shown) [Example E60] | 7.40 | 7.11 | < 5.40 | < 5.40 | –

Row | Compound | pIC50 (BaF3 (EGFR Del19/C797S)) | pIC50 [1] | pIC50 (BaF3 (EGFR WT)) | pIC50 (A431) | IC50 (A431; A-431, 72 h, read-out: A431 IC50 (nM)) [nM]
17 | COc1cc(N2CCC(N3CCN(CCCCOc4cccc5c4CN(C4CCC(=O)NC4=O)C5=O)CC3)CC2)c(CO)cc1Nc1ncc(Cl)c(Nc2ccccc2P(C)(C)=O)n1 (stereo not shown) [Example E127] | 8.06 | 7.10 | 6.23 | 5.90 | –
18 | CCc1cc(Nc2ncc(Cl)c(Nc3ccccc3P(C)(C)=O)n2)c(OC)cc1N1CCC(N2CCN(CCCc3cccc4c3CN(C3CCC(=O)NC3=O)C4=O)C(=O)C2)CC1 (stereo not shown) [Example E107] | 7.92 | 6.80 | < 5.40 | 5.87 | –
19 | CCc1cc(Nc2ncc(-c3cnn(C)c3)c(Nc3ccccc3P(C)(C)=O)n2)c(OC)cc1N1CCC(N2CCN(CCN(C)c3ccc4c(c3)CN(C3CCC(=O)NC3=O)C4=O)CC2)CC1 (stereo not shown) [Example E224] | 9.05 | < 5.40 | 6.18 | – | > 4000
20 | CCc1cc(Nc2ncc(Cl)c(Nc3ccccc3P(C)(C)=O)n2)c(OC)cc1N1CCC(N2CCN(CCC#Cc3ccc4c(c3)c(N3CCC(=O)NC3=O)nn4C)CC2)CC1 [Example E145] | 7.10 | 6.30 | < 5.40 | 5.95 | –
21 | CCc1cc(Nc2nc(Nc3ccccc3P(C)(C)=O)c3cc[nH]c3n2)c(OC)cc1N1CCC(N2CCN(CCCCOc3cccc4c3CN(C3CCC(=O)NC3=O)C4=O)CC2)CC1 (stereo not shown) [Example E64] | 7.93 | 7.38 | < 5.40 | < 5.40 | –
22 | CCc1cc(Nc2ncc(Cl)c(Nc3ccccc3P(C)(C)=O)n2)c(OC)cc1N1CCC2(CCN(CCCCOc3cccc4c3CN(C3CCC(=O)NC3=O)C4=O)CC2)CC1 (stereo not shown) [Example E47] | 8.02 | 7.43 | 6.34 | < 5.40 | –
23 | CCc1cc(Nc2ncc(-c3cnn(C)c3)c(Nc3ccccc3P(C)(C)=O)n2)c(OC)cc1N1CCC(N2CCN([C@H]3C[C@H](Oc4cc(F)cc5c4CN(C4CCC(=O)NC4=O)C5=O)C3)CC2)CC1 (stereo partly shown) [Example E222] | > 9.62 | 7.05 | 6.88 | < 5.40 | –
24 | CCc1cc(Nc2ncc(Cl)c(Nc3ccccc3P(C)(C)=O)n2)c(OC)cc1N1CCC(N2CCN(C(=O)CCCOc3cccc4c3CN(C3CCC(=O)NC3=O)C4=O)CC2)CC1 (stereo not shown) [Example E88] | 8.04 | 7.22 | 5.57 | 5.79 | –
25 | CCc1cc(Nc2ncc(Cl)c(Nc3ccc4[nH]ncc4c3P(C)(C)=O)n2)c(OC)cc1N1CCC(N2CCN(CCC#Cc3cccc4c3CN(C3CCC(=O)NC3=O)C4=O)CC2)CC1 (stereo not shown) [Example E51] | 7.85 | 7.24 | < 5.40 | 5.96 | –
26 | CCc1cc(Nc2ncc(-c3cnn(C)c3)c(Nc3ccccc3P(C)(C)=O)n2)c(OC)cc1N1CCC(N2CCN(CCOc3cc4c(cc3F)C(=O)N(C3CCC(=O)NC3=O)C4)CC2)CC1 (stereo not shown) [Example E189] | 9.10 | < 5.40 | 6.30 | 6.00 | –
27 | CCc1cc(Nc2ncc(-c3cnn(C)c3)c(Nc3ccccc3P(C)(C)=O)n2)c(OC)cc1N1CCC(N2CCN([C@H]3C[C@H](Oc4cccc5c4CN(C4CCC(=O)NC4=O)C5=O)C3)CC2)CC1 (stereo partly shown) [Example E70] | 9.15 | < 5.40 | 6.57 | 5.90 | –
28 | CCc1cc(Nc2ncc(Cl)c(Nc3ccccc3P(C)(C)=O)n2)c(OC)cc1N1CCC(N2CCN(CCCCCc3cccc4c3CN(C3CCC(=O)NC3=O)C4=O)CC2)CC1 (stereo not shown) [Example E39] | 8.38 | 7.72 | 6.60 | 6.03 | –
29 | CCc1cc(Nc2ncc(Cl)c(Nc3ccccc3P(C)(C)=O)n2)c(OC)cc1N1CCC(N2CCN(C3(/C=C\c4cccc5c4CN(C4CCC(=O)NC4=O)C5=O)CC3)CC2)CC1 (stereo not shown) [Example E85] | 7.86 | 7.28 | 5.73 | 5.86 | –
30 | CCc1cc(Nc2ncc(Cl)c(Nc3ccccc3P(C)(C)=O)n2)c(OC)cc1N1CCC(N2CCN(CCCCOc3cc4c(cc3F)C(=O)N(C3CCC(=O)NC3=O)C4)CC2)CC1 (stereo not shown) [Example E92] | 7.90 | 7.14 | 6.16 | 5.93 | –
31 | CCc1cc(Nc2ncc(Cl)c(Nc3ccccc3P(C)(C)=O)n2)c(OC)cc1N1CCC(N2CCN(C3(C#Cc4cccc5c4CN(C4CCC(=O)NC4=O)C5=O)CC3)CC2)CC1 (stereo not shown) [Example E84] | 7.60 | 7.07 | < 5.40 | 5.71 | –
